Data on 7 compounds can be found in patent US8048889B2, “3,4-disubstituted coumarin and quinolone compounds” (XTL Biopharmaceuticals Ltd., priority 2005, dated 2011).

In series [1] the test system is HCV Replicon (HCV IRES driven luciferase reporter in Huh-Luc-Neo cells). Description: HCV Replicon Luciferase Assay. Format: cell-based. Conditions: Hepatitis C virus, 48 h, no unit in table, hit threshold in μM. As to the method: (§1) The identification of inhibitors of HCV replication and/or proliferation has been facilitated by the development of a cell based system to study HCV replication and assay for HCV inhibitors. Inhibition of HCV replication may be performed using the HCV Replicon Assay developed in the laboratories of Bartenschlager (Lohman et al, Science 285, 110-113, 1999) and Rice (Blight et al, Science 290, 1972-1974, 2000). The assay is performed using the Huh-Luc-Neo cell line (Lohman et al, Science 285, 110-113, 1999). Huh-Luc-Neo cells are a human hepatoma cell line (Huh-7) stably expressing a bi-cistronic subgenomic replicon containing the HCV IRES in which the structural proteins of HCV had been deleted and replaced by a construct containing sequences coding for the firefly luciferase reporter gene, the neomycin selectable marker and the EMCV IRES to direct expression of a truncated HCV genome expressing the […] NS3, NS4A, NS4B, NS5A, and NS5B. HCV targets through which inhibitors could act to inhibit replication include the NS3 protease, the helicase/ATPase, NS5A, the NS5B- RNA dependent RNA polymerase, and the HCV IRES.
(§2) Expression of HCV IRES driven luciferase reporter activity and HCV RNA is measured to obtain indirect and direct measures of replication of HCV RNA respectively. Inhibitors of HCV replication and/or proliferation are determined by initially identifying molecules that inhibit expression of the HCV IRES driven luciferase reporter in this HCV Replicon Luciferase Assay. Cell viability assays and control cell based luciferase assays are then run on hits identified in the HCV Replicon Luciferase Assay to eliminate cytoxic compounds and non-specific compounds which act by inhibiting the luciferase enzyme.
Day 0 Cell Seeding and Compound Treatment: Huh-Luc-Neo Cells are seeded at 25,000/well in an opaque-walled 96 plate with Growth Medium (DMEM phenol red free+PS+2 mM glutamine; 100 μl/well). The compounds to be tested are added to the experimental wells (10 μl/well at 10× assay concentration) and the cells are then incubated (5% CO2, 37° C.) for 48 h.
(§3) Day 2 Reagent Preparation and Luciferase Assay: The Bright-Glo Luciferase Assay Buffer (Promega) is thawed and equilibrated to room temperature prior to use. The lyophilized Bright-Glo Luciferase Assay Substrate is equilibrated to room temperature prior to use. 10 ml of Bright-Glo Luciferase Assay Buffer is transferred to 1 vial of Bright-Glo Luciferase Assay Substrate bottle and mixed by gently with a Vortex. 100 ul of Bright-Glo Luciferase Assay reagent (Bright-Glo Luciferase Assay Buffer+Bright-Glo Luciferase Assay Substrate Mixture) is added to each well. The well contents are mixed for 5 min. on an orbital shaker at room temperature to induce cell lysis and the luminescence is then measured using a luminometer. The data is analyzed and IC50s are determined using GraphPad Prism 4 software. Hits validated in the Replicon Luciferase assay have IC50s<8.0 μM and show<30% inhibition of Cell Viability at a compound concentration of 100 μM (Cell Titer Glow Assay, cell viability assay conditions identical to HCV Replicon Luciferase Assay conditions).
In general terms: Replicon systems follow genome replication, usually without infectious particles.

The test system of series [2] is HCV Replicon (HCV RNA in Huh-Luc-Neo cells). Description: HCV Replicon RNA Assay (Taqman). Format: cell-based, Hepatitis C virus. The following applies: compound added day 0 and day 1, no unit in table, hit threshold in μM; for IC50: Hepatitis C virus. As for the experimental part: as §1, §2
Day 0, Cell Seeding and Compound Treatment: Huh-Luc-Neo Cells are seeded at 25,000/well in an opaque-walled 96 plate with Growth Medium (DMEM phenol red free+PS+2 mM glutamine; 100 μl/well). The compounds to be tested are added to the experimental wells (10 μl/well at 10× assay concentration) and the cells are then incubated (5% CO2, 37° C.).
Day 1, Media Change and Compound Treatment: 24 hours after the initial compound treatment the cell culture media is aspirated from the wells and fresh Growth Medium is added (DMEM phenol red free+PS+2 mM glutamine; 100 μl/well). The compounds to be tested are then added to the appropriate experimental wells (10 μl/well at 10 × assay concentration) and the cells are then incubated (5% CO2, 37° C.) for an additional 24 hrs.
Day 2, RNA Isolation and cDNA Synthesis: The cells are washed with 1× Phosphate Buffered Saline (PBS) once.
(§4) Day 3, Quantitative PCR Based Measurement of HCV RNA (Taqman Assay): Quantitative PCR analysis to measure HCV RNA expression from cDNA synthesized on Day 2 is performed using the ABI 9700 HT Sequence Detection System (Applied Biosystems) as previously described (Lohman et al, Science 285, 110-113, 1999). The data is analyzed and IC50s are determined using GraphPad Prism 4 software. Hits validated in the Replicon RNA Assay have IC50s<8.0 μM and show <30% inhibition of Cell Viability at a compound concentration of 50 μM (Cell Titer Glow Assay, cell viability assay conditions identical to HCV Replicon RNA Assay conditions).

For a further series, the system named is Huh-Luc-Neo cells. Description: CellTiter-Glo Cell Viability Assay. Type of series: cell-based, human. Conditions: for Toxicity % Inhibition at 50 uM (2 doses): inhibition of cell viability at 50 uM, conditions as in Replicon RNA Assay; for Toxicity % Inhibition at 100 um (1 dose): inhibition of cell viability at 100 um, conditions as in Replicon Luciferase Assay (48 h). As for the experimental part:
as §3, §4
Day 0, Cell Seeding and Compound Treatment: Huh-Luc-Neo Cells are seeded at 25,000/well in an opaque-walled 96 plate with Growth Medium (DMEM phenol red free+PS+2 mM glutamine; 100 ul/well). The compounds to be tested for inhibition of cell viability are added to the experimental wells (10 μl/well at 10× assay concentration) and the cells are then incubated (5% CO2, 37° C.) for 48 h.
Day 2, Reagent Preparation and Assay: The CellTiter-Glo Buffer is thawed and equilibrated to room temperature prior to use. The lyophilized CellTiter-Glo Substrate is equilibrated to room temperature prior to use. 10 ml of CeliTiter-Glo Buffer is transferred to 1 vial of CellTiter-Glo Substrate and mixed by gently with a Vortex. 100 μl of CellTiter-Glo Assay reagent (CellTiter-Glo Buffer+CellTiter-Glo Substrate Mixture) is added to each well. The well contents are mixed for 5 min. on an orbital shaker at room temperature to induce cell lysis and the luminescence is then measured using a luminometer.

`COc1ccc2c(OCc3ccc(F)c(F)c3)c(Cc3ccc(F)c(F)c3)c(=O)oc2c1` [VQ_31748]: in series [1], the IC50 (usually the concentration that inhibits the measured activity by half) was 5.38 µM. Moreover, the IC50 in series [2] was found to be 1.97 µM. Besides, in the series with Huh-Luc-Neo cells, the “Toxicity % Inhibition at 50 uM (2 doses)” value is on record as 4.9% and the “Toxicity % Inhibition at 100 um (1 dose)” value is listed as 10.0%.

In series [1], `COc1ccc(Nc2c(/C=N/c3ncccn3)c(=O)oc3ccccc23)cc1` [VQ_36470] came in with an IC50 of 59.9 µM. Further, half-maximal inhibition in series [2] (IC50) required 4.08 µM. In addition, in the series with Huh-Luc-Neo cells, the “Toxicity % Inhibition at 50 uM (2 doses)” value was −2.7% and the “Toxicity % Inhibition at 100 um (1 dose)” value amounted to 12.5%.

Consider `Cn1c(=O)c(Cc2ccc(Cl)c(Cl)c2)c(OCc2ccc(Cl)c(Cl)c2)c2ccccc21` [VQ_34453], for which the IC50 in series [1] turned out to be 8.5 µM; in series [2], 1.97 µM. Also, the “Toxicity % Inhibition at 50 uM (2 doses)” value in the series on Huh-Luc-Neo cells turned out to be 12.2%. Besides, the “Toxicity % Inhibition at 100 um (1 dose)” value in the series on Huh-Luc-Neo cells was determined as 24.6%.

Turning to `Cc1ccc(COc2c(Cc3ccc(C)cc3)c(=O)n(C)c3ccccc23)cc1` [VQ_32833], half-maximal inhibition in series [1] (IC50) was put at 2.89 µM. This compound displayed an IC50 in series [2] of 0.58 µM. In addition, in the series on Huh-Luc-Neo cells, the “Toxicity % Inhibition at 50 uM (2 doses)” value came out at 20.7% and the “Toxicity % Inhibition at 100 um (1 dose)” value came out at 34.6%.

As to `Cc1ccc(COc2c(Cc3ccc(C)cc3)c(=O)n(Cc3ccc(C)cc3)c3ccccc23)cc1` [VQ_33645], in series [1], the IC50 turned out to be 2.33 µM. In series [2], this compound showed an IC50 of more than 30 µM. Further, in the series with Huh-Luc-Neo cells, the “Toxicity % Inhibition at 50 uM (2 doses)” value was 17.2% and the “Toxicity % Inhibition at 100 um (1 dose)” value is recorded as 21.5%.

In the case of `COc1ccc(-c2c(OCc3cccc(C(F)(F)F)c3)c3ccccc3oc2=O)cc1` [VQ_36312], the half-maximal inhibitory concentration (IC50) is 3.06 µM in series [1] and 0.89 µM in series [2]. The “Toxicity % Inhibition at 50 uM (2 doses)” value with Huh-Luc-Neo cells amounted to 40.8%. Moreover, in the series with Huh-Luc-Neo cells, the “Toxicity % Inhibition at 100 um (1 dose)” value was determined as 5.0%.

With `Cc1cccc(COc2c(Cc3cccc(C)c3)c(=O)[nH]c3ccccc23)c1` [VQ_35027], in series [1], half-maximal inhibition (IC50) required 2.1 µM. Further, the “TaqMan IC50” value in series [2] is “Inactive”. Moreover, in the series with Huh-Luc-Neo cells, the “Toxicity % Inhibition at 50 uM (2 doses)” value is listed as 12.5% and the “Toxicity % Inhibition at 100 um (1 dose)” value is 4.6%.
